Experimental data: PubChem BioAssay AID1996
Converted amounts (≈) assume the structure as drawn.

Conditions: buffer; pH 7.4; 200.0 µM

Q: Which solubility kinetic does the source give for O=C(CCNC(=O)c1ccc([N+](=O)[O-])cc1)NCc1cccs1 here?
A: > 50 µg/mL

Q: For CCN(CC)C(=O)C1CCCN(c2ccc([N+](=O)[O-])cc2)C1 (stereo not drawn), which solubility kinetic is on record?
A: > 45.8 µg/mL

Q: For Cc1cccc(N2C(=O)c3cccc4cccc(c34)C2=O)c1, which solubility kinetic is on record?
A: 1.5 µg/mL (≈ 5.22 µM)

Q: Which solubility kinetic does the source give for Cn1ccnc1SCC(=O)c1c(N)n(C)c(=O)n(C)c1=O here?
A: 41.5 µg/mL (≈ 134 µM)

Q: Which solubility kinetic does the source give for CCc1ccc(C2CC(=O)N(c3cccc(F)c3)C3=C2C(=O)OC3)cc1 (stereo not drawn) here?
A: 9.6 µg/mL (≈ 27.3 µM)

Q: For Cc1c(Cl)cccc1NC(=O)Nc1cccnc1, which solubility kinetic is on record?
A: 34.9 µg/mL (≈ 133 µM)

Q: Which solubility kinetic does the source give for Cc1cc(C(=O)N2CCC3(CC2)OCCO3)no1 here?
A: > 37.8 µg/mL

Q: With Cc1ccc(-c2nc(NCC3CCCO3)sc2C)cc1 (stereo not drawn) as the molecule, how does the solubility kinetic read?
A: 24.2 µg/mL (≈ 83.9 µM)

Q: For O=C(O)c1ccccc1-c1cc2ccccc2[nH]1, which solubility kinetic is on record?
A: 29.9 µg/mL (≈ 126 µM)

Q: For N=c1oc2ccc(Cl)cc2cc1C(=O)Nc1ccc(F)cc1, which solubility kinetic is on record?
A: 1 µg/mL (≈ 3.16 µM)

Q: Which solubility kinetic does the source give for COc1ccc(CC(=O)Nc2c(C(N)=O)oc3ccccc23)cc1 here?
A: 1.6 µg/mL (≈ 4.93 µM)

Q: For COc1ccccc1NC(=O)C1CCN(S(C)(=O)=O)CC1, which solubility kinetic is on record?
A: > 46.9 µg/mL

Q: For O=C(Nc1cccc2cccnc12)c1ccc(Cl)cc1, which solubility kinetic is on record?
A: < 0.3 µg/mL

Q: Which solubility kinetic does the source give for COC(=O)c1cc(C(C)=O)c(C)[nH]c1=O here?
A: > 31.4 µg/mL

Q: Which solubility kinetic does the source give for COC(=O)c1c(C)[nH]c(C(=O)OCC(=O)NC(C)(C)C)c1C here?
A: > 46.6 µg/mL

Q: For O=C(NCC(O)c1ccccc1)c1cccs1 (stereo not drawn), which solubility kinetic is on record?
A: > 37.1 µg/mL

Q: For CN(CC(=O)Nc1ccccc1Cl)C(=O)CCNC(=O)Nc1ccccc1, which solubility kinetic is on record?
A: > 58.3 µg/mL

Q: With O=C(N/N=C/c1cccnc1)c1ccccc1Br as the molecule, how does the solubility kinetic read?
A: > 45.6 µg/mL

Q: With Cn1nc(C(=O)NNC(=O)c2cccc(Cl)c2)ccc1=O as the molecule, how does the solubility kinetic read?
A: > 46 µg/mL

Q: For CC(C)c1ccc(C2NC(=O)c3ccccc3O2)cc1 (stereo not drawn), which solubility kinetic is on record?
A: 1 µg/mL (≈ 3.74 µM)

Q: For Cc1ccc(S(=O)(=O)NCCNC(=O)CN2CCOCC2)cc1, which solubility kinetic is on record?
A: 48.8 µg/mL (≈ 143 µM)

Q: Which solubility kinetic does the source give for Nc1nc(Nc2ccccc2F)nc(NC2CCCCC2)c1[N+](=O)[O-] here?
A: < 0.1 µg/mL

Q: Which solubility kinetic does the source give for COc1ccc(NC(=O)COC(=O)c2ccc([N+](=O)[O-])o2)cc1Cl here?
A: 19.2 µg/mL (≈ 54.1 µM)

Q: Which solubility kinetic does the source give for CN(CC(=O)Nc1cccc(C(F)(F)F)c1)C1=NS(=O)(=O)c2ccccc21 here?
A: 3.7 µg/mL (≈ 9.31 µM)

Q: Which solubility kinetic does the source give for O=C(Nc1nccs1)c1ccc[nH]c1=O here?
A: > 33.2 µg/mL

Q: Which solubility kinetic does the source give for CC1CCC2(CC1)NC(=O)N(CC(=O)N1CC(C)CC(C)C1)C2=O (stereo not drawn) here?
A: 15.8 µg/mL (≈ 47.1 µM)

Q: For CC(C)CCNC(=O)c1cc(-c2cccs2)nc2ccccc12, which solubility kinetic is on record?
A: < 0.3 µg/mL

Q: With Nc1ccc(-c2cn3cccnc3n2)cc1 as the molecule, how does the solubility kinetic read?
A: > 31.5 µg/mL

Q: Which solubility kinetic does the source give for CCN(C(=O)N1CCOCC1)c1ccccc1C here?
A: 26 µg/mL (≈ 105 µM)

Q: For O=C(CSC(=S)N1CCOCC1)Nc1ncc2c(n1)CCCC2=O, which solubility kinetic is on record?
A: 54.7 µg/mL (≈ 149 µM)

Q: With Br.CCn1c2c(c(=N)c3ccccc31)CCC2 as the molecule, how does the solubility kinetic read?
A: > 44 µg/mL

Q: For C[C@@H](C(=O)Nc1nc2ccccc2s1)N1C(=O)C2CC=CCC2C1=O (stereo partly drawn), which solubility kinetic is on record?
A: 45.2 µg/mL (≈ 127 µM)

Q: Which solubility kinetic does the source give for COc1ccc(C2CC(=O)C=C(NCc3ccccc3)C2)cc1 (stereo not drawn) here?
A: 14.2 µg/mL (≈ 46.2 µM)

Q: Which solubility kinetic does the source give for COc1ccc(OC)c(N=C(N)N=C(N)N)c1 here?
A: > 35.6 µg/mL

Q: Which solubility kinetic does the source give for O=C(CCNS(=O)(=O)c1ccccc1F)OCc1ccccc1Cl here?
A: 34.5 µg/mL (≈ 92.8 µM)

Q: For CC1CCCCN1C(=S)NCc1ccco1 (stereo not drawn), which solubility kinetic is on record?
A: > 35.8 µg/mL

Q: For O=C(Nc1ccccc1)c1ccccc1C(=O)N1CCCCC1, which solubility kinetic is on record?
A: 42.6 µg/mL (≈ 138 µM)

Q: Which solubility kinetic does the source give for Cc1ccc(-c2csc3nc[nH]c(=O)c23)cc1C here?
A: 6.6 µg/mL (≈ 25.7 µM)

Q: For Cc1cccn2c(=O)cc(COC(=O)C(C)Oc3ccccc3)nc12 (stereo not drawn), which solubility kinetic is on record?
A: 46.8 µg/mL (≈ 138 µM)

Q: Which solubility kinetic does the source give for COc1cccc(C(=O)OCC(=O)N2CCc3ccccc3C2)c1 here?
A: 46.1 µg/mL (≈ 142 µM)

Q: For O=C(NC1CCN(C(=S)Nc2ccccc2)CC1)C1CCCCC1, which solubility kinetic is on record?
A: 2.1 µg/mL (≈ 6.08 µM)

Q: For Brc1c(NC2=NCCN2)ccc2nccnc12, which solubility kinetic is on record?
A: 11.2 µg/mL (≈ 38.3 µM)

Q: For O=C(c1ccccc1)C1NC1c1ccccc1 (stereo not drawn), which solubility kinetic is on record?
A: 26.9 µg/mL (≈ 120 µM)

Q: Which solubility kinetic does the source give for S=c1[nH]c2cc(Br)cnc2[nH]1 here?
A: 34.4 µg/mL (≈ 150 µM)

Q: For CCOC(=O)C1=C(C)Nc2ccccc2N=C1N, which solubility kinetic is on record?
A: > 36.8 µg/mL

Q: With Cc1nc([N+](=O)[O-])cn1CCCCN1C(=O)c2ccccc2C1=O as the molecule, how does the solubility kinetic read?
A: 8.3 µg/mL (≈ 25.3 µM)

Q: For CC1SCC(=O)N(CC(=O)NCCc2ccccc2)C1=O (stereo not drawn), which solubility kinetic is on record?
A: > 46 µg/mL

Q: For CN(Cc1c(F)cccc1Cl)C(=O)CNC(=O)c1cccs1, which solubility kinetic is on record?
A: > 51.1 µg/mL
